The target of one data set is human NK1 receptor (Homo sapiens (Human), UniProt P25103). The data set is described as follows: Affinity for human NK1 receptor (125I-substance P receptor binding test, membrane fraction). The following applies: membrane fraction of human NK1 receptor-expressing 293T cells; read-out: IC50 (nM), concentration required for 50% inhibition of 125I-substance P binding. The procedure:
Affinity for Human NK1 Receptor
(3) Measurement of Binding Affinity to Human NK1 Receptor
(3-1) Preparation of Membrane Fraction from Human NK1 Receptor-Expressing Cells
Human NK1 receptor-expressing cells were prepared in a 175 cm^2 culture flask (Nippon Becton Dickinson). The formation of a complex of the human NK1 receptor expression plasmid and Lipofectamine 2000 was performed by calculating the culture area ratio and increasing the scale of the method described in the above 2-4 by the ratio. The human NK1 receptor-expressing cells were collected in a buffer solution for the membrane fraction preparation (50 mM Tris (Wako Pure Chemical), 120 mM sodium chloride (Wako Pure Chemical Industries), 5 mM potassium chloride (Wako Pure Chemical Industries), 1 mM ethylenediaminetetraacetic acid (Sigma), 0.002 mg/mL chymostatin (Peptide Institute), 0.04 mg/bacitracin (Wako Pure Chemical Industries), 0.005 mg/mL phosphoramidon (Peptide Institute) and 0.5 mM phenylmethylsulfonyl fluoride (Wako Pure Chemical Industries), pH7.4) and centrifuged at 1,880 g for 10 minutes, and the cell sediment was suspended in the buffer solution for the membrane fraction preparation. After freezing and thawing the cells once, the cells were homogenized using a Dounce-type homogenizer (cooled on ice, 1000 rpm, 20 times) The homogenized cell suspension was centrifuged at 20,000 rpm for 10 minutes, and the supernatant was removed to obtain cell sediment. The cell sediment was suspended again in the buffer solution for the membrane fraction preparation and homogenized using a Dounce-type homogenizer (cooled on ice, 1000 rpm, 30 times). The cell suspension was centrifuged at 20,000 rpm for 10 minutes, and the supernatant was removed to obtain cell sediment. The same homogenization and centrifugation were repeated again, and final cell sediment was obtained. The final cell sediment was suspended in a buffer solution for the receptor binding test (50 mM Tris (Wako Pure Chemical Industries). 3 mM manganese chloride (Wako Pure Chemical Industries), 0.002 mg/mL chymostatin (Peptide Institute), 0.04 mg/bacitracin (Wako Pure Chemical Industries) and 0.02% bovine serum albumin (Sigma), pH 7.4), and the protein concentration was measured using BCA Protein Assay Kit (Pierce).
(3-2) Receptor Binding Test
The buffer solution for the receptor binding test was dispensed to the wells of a 96-well assay plate (Greiner) at 22.5 μL/well. DMSO solutions of a test compound, which were prepared at an 80-time higher concentration using 100% dimethyl sulfoxide (DMSO), were added to the wells at 2.5 μL/well (final concentrations of 1 nM to 100 nM), and the solutions were mixed. As a radiolabeled ligand, ^125I-substance P (Substance P, [^125I]Tyr^8-, Perkin Elmer) was used. ^125I-substance P was diluted with the buffer solution for the receptor binding test to a concentration resulting in 125 pmol/25 μL/well and added to the 96-well assay plate, and the solutions were mixed. The membrane fraction prepared from the human NK1 receptor-expressing cells was diluted with the buffer solution for the receptor binding test to a concentration resulting in 8 to 10 μg/well, suspended until the suspension became in such a homogenous state that the suspension could flow through a 27G injection needle smoothly and then added to the 96-well assay plate at 150 μL/well. Then, the plate was incubated at room temperature for 60 minutes while shaking the plate. The reaction solutions were suction-filtered through a multiscreen 96-well filter plate (Millipore) which had been pre-treated with 0.3% polyethyleneimine, and the reaction was terminated by washing with a washing solution (50 mM Tris and 0.02% bovine serum albumin, pH 7.4) four times. The bottom of the microplate was dried at 60° C., and then 100 μL/well of MicroScint 20 (PerkinElmer) was dispensed to the wells. The top of the plate was sealed with TopSeal A (PerkinElmer), and the plate was shaken for 5 to 10 minutes. […]

For data set [1], the system named is cisplatin-induced retching and vomiting. The data set is described as follows: Effect on cisplatin-induced acute and delayed emetic response. Format: in vivo. The following applies: ferret, 0.01 or 0.1 mg/kg iv. How it is done: The vertical axes show the number of retching and vomiting (Retches+Vomits) (the mean+standard error of 3 examples of control group, the mean+standard error of 3 examples of the group intravenously administered with 0.01 mg/kg, and the mean+standard error of 3 examples of the group intravenously administered with 0.1 mg/kg).
Effect on Cisplatin-Induced Acute and Delayed Emetic Response
The test compound solution was prepared by dissolving the test compound in a vehicle (a mixture of 50% N,N-dimetlylacetamide (Wako Pure Chemical Industries). 30% propylene glycol (Wako Pure Chemical Industries), 4% 2-hydroxypropy-β-cyclodextrin (Wako Pure Chemical Industries) and 16% distilled water). The vehicle only was administered to the control group.
Under anesthesia with isoflurane, 0.01 mg/kg or 0.1 mg/kg of the test compound was intravenously administered to a male ferret (Marshall BioResources Japan) from the jugular vein. Cisplatin in saline, which was heated to 40-50° C., was intraperitoneally administered at 5 mg/kg one hour after the drug administration.

The target in a further data set is hERG channel (Homo sapiens (Human), UniProt Q12809). The data set is described as follows: Evaluation of hERG current (whole-cell patch clamp). Format: cell-based. The following applies: 10 μM, application for 10 minutes, HEK293 cells, n = 3, average ± standard error. The procedure: Evaluation of hERG Current
Chain of hERG channel (Q12809 whole entry, the tested form may be a part): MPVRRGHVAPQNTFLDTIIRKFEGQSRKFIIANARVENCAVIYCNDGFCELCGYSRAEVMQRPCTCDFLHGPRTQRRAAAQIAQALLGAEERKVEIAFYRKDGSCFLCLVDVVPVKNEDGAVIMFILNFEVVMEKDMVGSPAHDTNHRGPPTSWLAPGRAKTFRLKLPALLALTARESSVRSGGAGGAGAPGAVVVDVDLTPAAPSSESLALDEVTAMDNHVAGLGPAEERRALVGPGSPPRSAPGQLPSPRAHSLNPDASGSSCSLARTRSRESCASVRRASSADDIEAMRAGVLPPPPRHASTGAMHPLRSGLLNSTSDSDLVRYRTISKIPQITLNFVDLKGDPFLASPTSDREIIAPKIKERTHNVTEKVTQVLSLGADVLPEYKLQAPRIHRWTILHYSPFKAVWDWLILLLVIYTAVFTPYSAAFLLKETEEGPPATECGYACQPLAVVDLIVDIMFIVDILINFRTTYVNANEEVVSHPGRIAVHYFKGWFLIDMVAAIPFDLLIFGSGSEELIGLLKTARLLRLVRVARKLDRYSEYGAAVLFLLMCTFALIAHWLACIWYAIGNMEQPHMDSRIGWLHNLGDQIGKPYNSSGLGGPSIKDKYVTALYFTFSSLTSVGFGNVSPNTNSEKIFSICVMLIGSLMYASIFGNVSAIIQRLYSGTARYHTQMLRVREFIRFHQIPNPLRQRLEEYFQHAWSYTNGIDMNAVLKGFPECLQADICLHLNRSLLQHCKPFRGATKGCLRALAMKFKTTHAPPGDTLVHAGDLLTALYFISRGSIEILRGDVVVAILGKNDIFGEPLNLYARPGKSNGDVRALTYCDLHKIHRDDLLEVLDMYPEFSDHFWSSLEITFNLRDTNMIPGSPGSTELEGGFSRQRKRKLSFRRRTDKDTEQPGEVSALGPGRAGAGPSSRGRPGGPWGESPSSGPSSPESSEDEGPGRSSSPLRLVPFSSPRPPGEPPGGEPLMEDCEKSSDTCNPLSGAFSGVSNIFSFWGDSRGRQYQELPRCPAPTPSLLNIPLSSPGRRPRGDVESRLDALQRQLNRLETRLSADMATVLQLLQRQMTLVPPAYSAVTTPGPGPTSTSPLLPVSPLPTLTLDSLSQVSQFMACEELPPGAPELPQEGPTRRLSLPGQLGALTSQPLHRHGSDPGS
A dimethyl sulfoxide (DMSO) solution of the test compound with a concentration 1000 times higher than the evaluation concentration (10 μM) was prepared, and a solution with a final application concentration was prepared by diluting the solution. The hERG current was measured by a whole-cell method using a patch clamp system, where a cover glass on which hERG channel-expressing human embryonic kidney (HEK) 293 cells were seeded was placed on a perfusion bath and a perfusion solution was caused to flow. The change in the hERG channel-derived current caused by a pulse protocol (holding potential of −80 mV, depolarization pulse of +20 mV for 1.9 seconds, repolarization pulse of −50 mV for 2 seconds, stimulated at intervals of 15 seconds) of data acquisition/analysis software, pCLAMP9 (Axon instruments. Inc.) was measured. The measurement conditions were a flow rate of about 1.5 mL/min and a temperature of about 33° C. Two wave forms immediately before applying the test compound and two wave forms immediately after the application for 10 minutes were analyzed, and the statistical analysis was performed. The value before the application of the test compound was regarded as 100%, and the change rate based on the value was determined.
In the table, Ex. No. means the Example number, and the change rate is the average±the standard error.
On the technique in general: Block of hERG is tested as a sign of cardiac risk.

Chain of human NK1 receptor (P25103 whole entry): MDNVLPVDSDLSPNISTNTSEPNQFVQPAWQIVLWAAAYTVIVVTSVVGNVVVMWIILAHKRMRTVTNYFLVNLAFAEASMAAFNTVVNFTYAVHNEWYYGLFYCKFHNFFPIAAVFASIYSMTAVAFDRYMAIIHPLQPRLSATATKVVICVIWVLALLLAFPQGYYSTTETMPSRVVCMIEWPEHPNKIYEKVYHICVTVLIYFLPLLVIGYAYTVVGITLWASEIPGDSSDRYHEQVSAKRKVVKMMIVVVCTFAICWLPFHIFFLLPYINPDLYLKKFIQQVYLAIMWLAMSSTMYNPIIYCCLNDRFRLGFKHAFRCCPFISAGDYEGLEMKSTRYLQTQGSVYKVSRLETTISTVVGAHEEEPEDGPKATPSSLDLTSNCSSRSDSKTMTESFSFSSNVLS

Consider `Cc1cc(F)ccc1-c1cc(C2(C)CCCC(CC(=O)O)C2)ncc1N(C)C(=O)C(C)(C)c1cc(C(F)(F)F)cc(C(F)(F)F)c1` (centres unmarked) [Example 4, {3-[5-{[2-(3,5-Bistrifluoromethylphenyl)-2-methylpropionyl]methylamino}-4-(4-fluoro-2-methylphenyl)pyridin-2-yl]-3-methylcyclohexyl}acetic Acid], for which the IC50 on human NK1 receptor is 2.35 nM. On the same count and under the same terms, then `Cc1cc(F)ccc1-c1cc(C2CCC(C(C)C(=O)O)CC2)ncc1N(C)C(=O)C(C)(C)c1cc(C(F)(F)F)cc(C(F)(F)F)c1` (centres unmarked) [Example 10, 2-{4-[5-{[2-(3,5-Bistrifluoromethylphenyl)-2-methylpropionyl]methylamino}-4-(4-fluoro-2-methylphenyl)pyridin-2-yl]cyclohexyl}propionic Acid], with 2.79 nM. With `Cc1cc(F)ccc1-c1cc([C@H]2CC[C@H](CC(=O)O)CC2)ncc1N(C)C(=O)C(C)(C)c1cc(C(F)(F)F)cc(C(F)(F)F)c1` [Example 13, trans-{4-[5-{[2-(3,5-Bistrifluoromethylphenyl)-2-methylpropionyl]methylamino}-4-(4-fluoro-2-methylphenyl)pyridin-2-yl]cyclohexyl}acetic acid], the IC50 at human NK1 receptor is 1.62 nM. Moreover, the “number of retching and vomiting, delayed phase” value in data set [1] (24 hours to 72 hours after cisplatin 5 mg/kg ip) was “the inhibition of the number of retching and vomiting was observed”. Further, the “number of retching and vomiting, acute phase” value in data set [1] (up to 24 hours after cisplatin 5 mg/kg ip) is “the inhibition of the number of retching and vomiting was observed”. For the same compound, the “hERG current change rate % (value before application = 100%)” value on hERG channel was determined as 81.1 ± 5.6%.

Take `Cc1cc(F)ccc1-c1cc(C2CCC(C(=O)O)CC2)ncc1N(C)C(=O)C(C)(C)c1cc(C(F)(F)F)cc(C(F)(F)F)c1` (centres unmarked) [Example 1, 4-[5-{[2-(3,5-Bistrifluoromethylphenyl)-2-methylpropionyl]methylamino}-4-(4-fluoro-2-methylphenyl)pyridin-2-yl]cyclohexanecarboxylic Acid]: on human NK1 receptor, the IC50 worked out at 1.45 nM. For the compound `Cc1cc(F)ccc1-c1cc([C@H]2CC[C@H](C(C)(C)C(=O)O)CC2)ncc1N(C)C(=O)C(C)(C)c1cc(C(F)(F)F)cc(C(F)(F)F)c1` [Example 11, trans-2-{4-[5-{[2-(3,5-Bistrifluoromethylphenyl)-2-methylpropionyl]methylamino}-4-(4-fluoro-2-methylphenyl)pyridin-2-yl]cyclohexyl}-2-methylpropionic Acid], at human NK1 receptor, the IC50 was 6.75 nM. On the same count and under the same terms, then `Cc1cc(F)ccc1-c1cc(C2CCC(CC(=O)O)CC2)nc(C#N)c1N(C)C(=O)C(C)(C)c1cc(C(F)(F)F)cc(C(F)(F)F)c1` (centres unmarked) [Example 8, {4-[5-{[2-(3,5-Bistrifluoromethylphenyl)-2-methylpropionyl]methylamino}-6-cyano-4-(4-fluoro-2-methylphenyl)pyridin-2-yl]cyclohexyl}acetic Acid], with 4.01 nM. Same read-out and setting: the figure for `Cc1cc(F)ccc1-c1cc([C@H]2CC[C@H](CC(=O)O)CC2)nc(C#N)c1N(C)C(=O)C(C)(C)c1cc(C(F)(F)F)cc(C(F)(F)F)c1` [Example 20, trans-{4-[5-{[2-(3,5-Bistrifluoromethylphenyl)-2-methylpropionyl]methylamino}-6-cyano--4-(4-fluoro-2-methylphenyl)-pyridin-2-yl]cyclohexyl}acetic acid] is 3.27 nM.

As for `Cc1cc(F)ccc1-c1cc([C@H]2CC[C@@H](CC(=O)O)CC2)ncc1N(C)C(=O)C(C)(C)c1cc(C(F)(F)F)cc(C(F)(F)F)c1` [Example 14, cis-{4-[5-{[2-(3,5-bistrifluoromethylphenyl)-2-methylpropionyl]methylamino}-4-(4-fluoro-2-methylphenyl)pyridin-2-yl]cyclohexyl}acetic acid], the IC50 at human NK1 receptor turned out to be 2.21 nM. The “hERG current change rate % (value before application = 100%)” value at hERG channel is listed as 80.3 ± 3.9%. In the case of `Cc1ccccc1-c1cc(C2CCC(CC(=O)O)CC2)nc(C#N)c1N(C)C(=O)C(C)(C)c1cc(C(F)(F)F)cc(C(F)(F)F)c1` (centres unmarked) [Example 16, [4-(5-{[2-(3,5-Bistrifluoromethylphenyl)-2-methylpropionyl]methylamino}-6-cyano-4-ortho-tolylpyridin-2-yl)cyclohexyl]acetic Acid], the IC50 on human NK1 receptor is 2.78 nM. Take `Cc1cc(F)ccc1-c1cc([C@H]2CC[C@@H](CC(=O)O)CC2)nc(C#N)c1N(C)C(=O)C(C)(C)c1cc(C(F)(F)F)cc(C(F)(F)F)c1` [Example 21, cis-{4-[5-{[2-(3,5-bistrifluoromethylphenyl)-2-methylpropionyl]methylamino}-6-cyano-4-(4-fluoro-2-methylphenyl)pyridin-2-yl]cyclohexyl}acetic acid]: the IC50 at human NK1 receptor stood at 2.36 nM.

For `Cc1cc(F)ccc1-c1cc(C2CCC3(CC2)CC3C(=O)O)ncc1N(C)C(=O)C(C)(C)c1cc(C(F)(F)F)cc(C(F)(F)F)c1` (centres unmarked) [Example 7, 6-[5-{[2-(3,5-Bistrifluoromethylphenyl)-2-methylpropionyl]methylamino}-4-(4-fluoro-2-methylphenyl)pyridin-2-yl]spiro[2.5]octane-1-carboxylic Acid], at human NK1 receptor, the IC50 was 1.63 nM. The same measure, in the same setting: then `Cc1ccccc1-c1cc(C2CCC(CC(=O)O)CC2)ncc1N(C)C(=O)C(C)(C)c1cc(C(F)(F)F)cc(C(F)(F)F)c1` (centres unmarked) [Example 9, {4-[5-{[2-(3,5-Bistrifluoromethylphenyl)-2-methylpropionyl]methylamino}-4-ortho-tolylpyridine-yl]-cyclohexyl}acetic Acid], with 2.35 nM; and `Cc1cc(F)ccc1-c1cc(C2CCCC(CC(=O)O)C2)ncc1N(C)C(=O)C(C)(C)c1cc(C(F)(F)F)cc(C(F)(F)F)c1` (centres unmarked) [Example 3, {3-[5-{[2-(3,5-Bistrifluoromethylphenyl)-2-methylpropionyl]methylamino}-4-(4-fluoro-2-methylphenyl)pyridin-2-yl]cyclohexyl}acetic Acid], with 2.1 nM.
